Data on four molecules can be found in US11981729B2, “Method” (Agency for Science, Technology and Research, priority 2020, dated 2024).

One assay relates to MDA ER-G2 cells. Kind of assay: ECM degradation assay, MDA ER-G2 on rat tail ECM. It is filed as cell-based, human. The conditions noted are these: for ECM degradation after ECM pre-treatment: ECM pre-treated before cell seeding; for ECM degradation: MDA ER-G2, 1 mM GSH supplemented, or GPx and H2O2, vs untreated cells. The protocol: (§1) Gelatin (#G1393, Sigma) was first coupled to 5-carboxy-X-rhodamine succinimidyl ester (#C-6125, ThermoFisher Scientific). Sterile coverslips were coated with gelatin for 20 min, then fixed with 0.5% glutaraldehyde (#15960, Electron Microscopy Sciences) for 40 min. After washing, a layer of 0.5 mg/ml type I collagen (#354236 rat tail, Corning) was coated onto these gelatin coverslips and incubated 4 h at 37° C. before cell seeding. Cells were incubated overnight before fixation and staining. At least 20 images were acquired for each condition, experiments were done in 3 biological replicates. The area of degradation was quantified using ImageJ and normalized to the number of nuclei in each image. To chemically reduce collagen disulfide bonds before cell seeding and ECM degradation assay, a 0.5 mg/ml type I collagen matrix was coated onto red gelatin coverslips and incubated 4 h at 37° C. for polymerization. Collagen was incubated with 2.5 mM TCEP (#64, 654-7, Sigma Aldrich) for 30 min at room temperature, rinsed 3 times with 1% BSA in PBS, and incubated with 5 mM N-ethylmaleimide (NEM #23030, ThermoFisher Scientific) for 30 min at room temperature. Coverslips were gently rinsed 3 more times with 1% BSA in PBS before cell seeding and ECM degradation assay. To study the involvement of GSH in collagen disulfide bond reduction, cells were seeded on red gelatin and collagen I coated coverslips to proceed to ECM degradation assay. Cells were incubated 2 h to adhere and where then incubated with 1 mM L-gluthatione reduced (GSH #4251, Sigma Aldrich) overnight before fixation. For the opposite experiment, cells were seeded into red gelatin and collagen I coated coverslips, incubated 2 h to adhere and treated with 10 mg GPx1 (SRP-8010, Sigma Aldrich) and H2O2 every 30 min for 6 hours before fixation. ECM degradation quantification was performed as described above. siRNA oligonucleotides were purchased from Dharmacon. Endogenous Cnx was depleted by 2 rounds of siRNA transfection. Briefly, cells were first treated by reverse transfection with 25 nM of control siRNA ([NT]) or siRNA against [NT]) using Lipofectamine RNAiMAX (ThermoFisher Scientific). The day after, cells were treated again by forward transfection with nM siRNA diluted in Opti-MEM medium (Gibco) and incubated 5 more days before analyzing. Since GALA stimulates ECM degradation and Cnx is present in the responsible subcellular structures, we next asked whether surface Cnx is involved in this activity. To measure ECM degradation, we used a sandwich of fluorescently labeled gelatin overlaid with native ECM of different sources. […] We quantified ECM degradative activity by measuring the loss of fluorescent gelatin using automated image analysis (FIG. 8C). […]

Assay [1] has as its system NIH3T3vSrc cells. The assay can be described thus: ECM degradation assay, NIH3T3vSrc on rat tail ECM. The following applies: for ECM degradation: 1 mM GSH supplemented, or GPx and H2O2, vs untreated cells. It is filed as cell-based, mouse. The protocol:
as §1, with “image.” for “image. To chemically reduce collagen disulfide bonds before cell seeding and ECM degradation assay, a 0.5 mg/ml type I collagen matrix was coated onto red gelatin coverslips and incubated 4 h at 37° C. for polymerization. Collagen was incubated with 2.5 mM TCEP (#64, 654-7, Sigma Aldrich) for 30 min at room temperature, rinsed 3 times with 1% BSA in PBS, and incubated with 5 mM N-ethylmaleimide (NEM #23030, ThermoFisher Scientific) for 30 min at room temperature. Coverslips were gently rinsed 3 more times with 1% BSA in PBS before cell seeding and ECM degradation assay.”, “activity.” for “activity. To measure ECM degradation, we used a sandwich of fluorescently labeled gelatin overlaid with native ECM of different sources.”

For the next assay, the system named is MMP2, 9 and 14. The assay can be described thus: MMP protein level by western blot after Cnx depletion. The format is cell-based. The conditions noted are these: NIH3T3vSrc after Cnx depletion. The protocol:
Cells were washed twice with ice-cold PBS, scraped in ice-cold RIPA lysis buffer (50 mM Tris, 200 mM NaCl, 0.5% NP-40, Complete and PhoStop inhibitor [Roche Applied Science]) and lysed for 30 min at 4° C. Lysates were then clarified by centrifugation at 13000 g for 10 min at 4° C. Lysate concentrations were determined using Bradford reagent (Bio-Rad). Lysates were boiled at 95° C. for 5 min and separated by SDS-PAGE electrophoresis using 4-12% Bis-Tris NuPage gels (Invitrogen) at 180V for 70 min. Samples were then transferred on nitrocellulose membranes using iBlot transfer system (Invitrogen) and blocked using 3% BSA dissolved in TBST (50 mM Tris, 150 mM NaCl and 0.1% Tween-20) for 1 h at room temperature. Membranes were then incubated with primary antibodies (1/1000 diluted in 3% BSA-TBST) overnight at 4° C. […]
(§2) To better understand this Cnx requirement, we tested whether Cnx depletion affected invadosomes formation, which we measured in NIH3T3vSrc because of the abundance of invadosomes and ease of detection in these cells (FIG. 2E). Given the lack of effect, we hypothesized an effect on Matrix Metalloproteinases and measured MMP2, 9 and 14 abundance by western blot (FIG. 8F). We also measured MMPs activity in a cell lysate and MMP14 localization in invadosomes rosettes after Cnx depletion (FIG. 8G, FIG. 8H).

Assay [2] deals with NIH3T3vSrc cells. Kind of assay: Invadosome rosette formation after Cnx depletion. It is filed as cell-based, mouse. The conditions noted are these: siCnx vs siNT5. The protocol: siRNA oligonucleotides were purchased from Dharmacon. Endogenous Cnx was depleted by 2 rounds of siRNA transfection. Briefly, cells were first treated by reverse transfection with 25 nM of control siRNA (5′-UGGUUUACAUGUCGACUAA-3′) or siRNA against Cnx (5′-[…]-3′) using Lipofectamine RNAiMAX (ThermoFisher Scientific). The day after, cells were treated again by forward transfection with nM siRNA diluted in Opti-MEM medium (Gibco) and incubated 5 more days before analyzing.
as §2

A further assay deals with MMP14. The assay can be described thus: MMP14 localization in invadosome rosettes (immunofluorescence). It is filed as cell-based. The conditions noted are these: NIH3T3vSrc after Cnx depletion. The protocol: Cells were seeded on coverslips, at 70 000 cells per well in a 24-well plate (ThermoFisher Scientific) and incubated overnight. Cells were fixed with 4% paraformaldehyde (PFA) in Phosphate Buffered Saline (PBS, Gibco) for 10 min, rinsed 3 times with PBS and then permeabilized with 0.2% Triton X-100 for 10 min. Cells were incubated with primary antibodies (1/100 diluted in 2% FBS-PBS) for 1 h 30 at room temperature, rinsed 3 times with PBS and incubated with secondary antibodies (1/200 diluted in 2% FBS-PBS) for 40 min before being rinsed and mounted on microscope slides.
as §2

Assay [3] deals with NIH3T3vSrc cells. The assay can be described thus: Cell-mediated ECM disulfide bond reduction (NEM / OX133 staining). It is filed as cell-based, mouse. The following applies: NIH3T3vSrc on rat tail ECM, GM6001 and NEM, 16 hours; Cnx depleted vs control cells. An excerpt: In the ER, the Cnx-ERp57 complex mediates the formation and isomerization of disulfide bonds in neo-synthesized proteins^40. To explain the surprising requirement of the same complex for matrix degradation, we hypothesized it could mediate the reduction of disulfide bonds in extracellular ECM fibers. To reveal disulfide bonds in ECM preparations, we used the reducing agent tris(2-carboxyethyl)phosphine (TCEP), followed by reaction with N-ethylmaleimide (NEM). […] To test whether disulfide bonds are present in liver ECM, we prepared decellularized mouse liver tissue. The decellularized matrix presented as a meshwork with a diamond-shaped pattern, the fibers staining for Collagen I, III, IV, and fibronectin (FIGS. 4B, FIG. 9A, FIG. 9B). […] We also tested the commercially-sourced liver porcine ECM and the rat tail connective tissue and obtained in both cases an abundant staining with OX133 after TECP/NEM treatment (FIG. 9C). This staining was entirely dependent on TCEP and NEM. In all cases, most of the OX133 signal colocalized with collagen fibers.
To test if cells are able to reduce these disulfide bonds, the actively degrading NIH3T3vSrc cells were sparsely seeded on rat tail ECM. The cells were treated with the MMP inhibitor GM6001 to prevent collagen degradation. NEM was then added to reveal reduced cysteines and after 16 hours, coverslips were fixed and labeled. […]

A further assay concerns MMPs. Kind of assay: FRET-based MMP activity assay on cell lysates. The format is biochemical. The conditions noted are these: MDA ER-G2 after Cnx depletion. The procedure:
In order to quantify total MMP activity, we used a FRET-based MMP activity assay kit (ab112147), on cell lysates, according to the manufacturer's protocol. Fluorescence was read at 540 nm using a microplate reader (Tecan) every 5 min for 2 h.
as §2

Regarding `Cl.O=C(O)CCP(CCC(=O)O)CCC(=O)O` [TCEP, Tris(2-carboxyethyl)phosphine hydrochloride], the results for the “ECM degradation after ECM pre-treatment” value in the assay on MDA ER-G2 cells (MDA ER-G2 control cells) and with MDA ER-G2 cells (MDA ER-G2 depleted of Cnx or ERp57) were “stimulatory effect on ECM degradation” and “completely reversed the inhibitory effect of Cnx depletion”, respectively.
Regarding `N[C@@H](CCC(=O)N[C@@H](CS)C(=O)NCC(=O)O)C(=O)O` [GSH, L-gluthatione reduced], the ECM degradation entry in the assay with NIH3T3vSrc cells [1] and with MDA ER-G2 cells was “more efficient at ECM degradation” each time.
Turning to 5′-CAAGAGUGGUCCUAGGAGAUU-3′ [siCnx], the “MMP2, 9 and 14 abundance by western blot” value in the assay on MMP2, 9 and 14 is reported as “could not detect any difference”. In the assay on NIH3T3vSrc cells [2], the “rosette formation (number of rosettes per cell and percentage of cells making rosettes)” value was “non significant”. In addition, in the assay with MMP14, the “MMP14 localization in invadosomes rosettes” value is recorded as “could not detect any difference”. Besides, the matrix degradation entry with NIH3T3vSrc cells [1] (siRNA depletion vs control siRNA (siNT5), listed as siRNA targeting Cnx) was “similarly reduced ECM degradation”. The “OX133 staining of ECM (reduced disulfide bonds)” value in the assay with NIH3T3vSrc cells [3] was “significantly reduced”. Besides, in the assay on MMPs, the “MMPs activity in a cell lysate” value was “could not detect any difference”.

B1: GPx: GSH peroxidase GPx1 (SRP-8010, Sigma Aldrich), given to cells together with H2O2 (protein, UniProt P00435 1-205, looked up)
Glutathione peroxidase 1: MCAAQRSAAALAAAAPRTVYAFSARPLAGGEPFNLSSLRGKVLLIENVASLUGTTVRDYTQMNDLQRRLGPRGLVVLGFPCNQFGHQENAKNEEILNCLKYVRPGGGFEPNFMLFEKCEVNGEKAHPLFAFLREVLPTPSDDATALMTDPKFITWSPVCRNDVSWNFEKFLVGPDGVPVRRYSRRFLTIDIEPDIETLLSQGASA
For B1, the ECM degradation entry in the assay on NIH3T3vSrc cells [1] and in the assay on MDA ER-G2 cells was “less efficient ECM degradation” in each case.
